Experimental data published in the NIST ThermoML archive (doi:10.1021/je060271a).
± gives the expanded uncertainty stated by the source.

Conditions: Liquid, Vibrating tube method

Measured: mass density

CCCCC(=O)OCC(COC(=O)CCCC)(COC(=O)CCCC)COC(=O)CCCC [pentaerythritol tetrapentanoate]
1029.8 ± 1.2 kg/m3: 303.15 K, 31462 kPa | 303.15 K, 31504 kPa | 303.15 K, 31576 kPa | 303.15 K, 31610 kPa | 303.15 K, 31767 kPa
1029.6 ± 1.2 kg/m3: 303.15 K, 31060 kPa | 303.15 K, 31204 kPa | 303.15 K, 31315 kPa | 303.15 K, 31350 kPa
1030.1 ± 1.2 kg/m3: 303.15 K, 32078 kPa | 303.15 K, 32152 kPa | 303.15 K, 32188 kPa | 303.15 K, 32232 kPa
1029.9 ± 1.2 kg/m3: 303.15 K, 31653 kPa | 303.15 K, 31688 kPa | 303.15 K, 31731 kPa | 303.15 K, 31803 kPa | 303.15 K, 31918 kPa
1011.2 ± 1.2 kg/m3: 303.16 K, 672.66 kPa | 303.16 K, 673.71 kPa | 303.16 K, 674.57 kPa | 303.16 K, 687.26 kPa | 303.16 K, 702.03 kPa
1028.8 ± 1.2 kg/m3: 303.15 K, 29879 kPa
1030.6 ± 1.2 kg/m3: 303.15 K, 32667 kPa | 303.15 K, 32798 kPa | 303.15 K, 33012 kPa | 303.15 K, 33064 kPa | 303.15 K, 33109 kPa | 303.15 K, 33237 kPa
1029 ± 1.2 kg/m3: 303.15 K, 29916 kPa | 303.15 K, 29979 kPa | 303.15 K, 30079 kPa | 303.15 K, 30118 kPa | 303.15 K, 30185 kPa | 303.15 K, 30217 kPa | 303.15 K, 30286 kPa | 303.15 K, 30390 kPa
1030.5 ± 1.2 kg/m3: 303.15 K, 32838 kPa | 303.15 K, 32877 kPa | 303.15 K, 32926 kPa | 303.15 K, 32968 kPa
1011.4 ± 1.2 kg/m3: 303.16 K, 665.18 kPa | 303.16 K, 702.73 kPa | 303.16 K, 792.36 kPa
1030.9 ± 1.2 kg/m3: 303.15 K, 33423 kPa | 303.15 K, 33494 kPa | 303.15 K, 33594 kPa | 303.15 K, 33616 kPa | 303.15 K, 33715 kPa
1031.1 ± 1.2 kg/m3: 303.15 K, 33790 kPa | 303.15 K, 33886 kPa | 303.15 K, 33938 kPa | 303.15 K, 34041 kPa | 303.15 K, 34209 kPa
1030 ± 1.2 kg/m3: 303.15 K, 31846 kPa | 303.15 K, 31882 kPa | 303.15 K, 31954 kPa | 303.15 K, 31996 kPa | 303.15 K, 32033 kPa
1029.1 ± 1.2 kg/m3: 303.15 K, 30150 kPa | 303.15 K, 30249 kPa | 303.15 K, 30319 kPa | 303.15 K, 30352 kPa | 303.15 K, 30461 kPa
1031.4 ± 1.3 kg/m3: 303.15 K, 34335 kPa | 303.15 K, 34345 kPa | 303.15 K, 34355 kPa | 303.15 K, 34375 kPa | 303.15 K, 34382 kPa
1029.4 ± 1.2 kg/m3: 303.15 K, 30665 kPa | 303.15 K, 30844 kPa | 303.15 K, 30884 kPa | 303.15 K, 30917 kPa | 303.15 K, 30951 kPa
1030.8 ± 1.2 kg/m3: 303.15 K, 33214 kPa | 303.15 K, 33284 kPa | 303.15 K, 33307 kPa | 303.15 K, 33354 kPa | 303.15 K, 33449 kPa | 303.15 K, 33521 kPa | 303.15 K, 33544 kPa
1029.3 ± 1.2 kg/m3: 303.15 K, 30705 kPa | 303.15 K, 30738 kPa | 303.15 K, 30777 kPa | 303.15 K, 30810 kPa
1030.2 ± 1.2 kg/m3: 303.15 K, 32115 kPa | 303.15 K, 32269 kPa | 303.15 K, 32306 kPa | 303.15 K, 32544 kPa
1029.7 ± 1.2 kg/m3: 303.15 K, 31246 kPa | 303.15 K, 31392 kPa | 303.15 K, 31427 kPa | 303.15 K, 31540 kPa
1031 ± 1.2 kg/m3: 303.15 K, 33643 kPa | 303.15 K, 33666 kPa | 303.15 K, 33687 kPa | 303.15 K, 33740 kPa | 303.15 K, 33763 kPa | 303.15 K, 33813 kPa | 303.15 K, 33836 kPa | 303.15 K, 33862 kPa | 303.15 K, 33911 kPa | 303.15 K, 33963 kPa
1030.3 ± 1.2 kg/m3: 303.15 K, 32387 kPa | 303.15 K, 32432 kPa | 303.15 K, 32470 kPa | 303.15 K, 32507 kPa | 303.15 K, 32628 kPa
1030.4 ± 1.2 kg/m3: 303.15 K, 32351 kPa | 303.15 K, 32590 kPa | 303.15 K, 32714 kPa | 303.15 K, 32752 kPa
1030.7 ± 1.2 kg/m3: 303.15 K, 33144 kPa | 303.15 K, 33166 kPa | 303.15 K, 33187 kPa | 303.15 K, 33258 kPa | 303.15 K, 33377 kPa | 303.15 K, 33404 kPa | 303.15 K, 33472 kPa
1031.2 ± 1.2 kg/m3: 303.15 K, 33987 kPa | 303.15 K, 34014 kPa | 303.15 K, 34066 kPa | 303.15 K, 34091 kPa | 303.15 K, 34122 kPa | 303.15 K, 34176 kPa | 303.15 K, 34236 kPa | 303.15 K, 34369 kPa
1029.5 ± 1.2 kg/m3: 303.15 K, 30991 kPa | 303.15 K, 31025 kPa | 303.15 K, 31101 kPa | 303.15 K, 31135 kPa | 303.15 K, 31170 kPa | 303.15 K, 31280 kPa
1031.3 ± 1.2 kg/m3: 303.15 K, 34148 kPa | 303.15 K, 34293 kPa | 303.15 K, 34298 kPa
1028.9 ± 1.2 kg/m3: 303.15 K, 29848 kPa | 303.15 K, 29948 kPa | 303.15 K, 30016 kPa | 303.15 K, 30047 kPa
1031.3 ± 1.3 kg/m3: 303.15 K, 34272 kPa | 303.15 K, 34306 kPa | 303.15 K, 34361 kPa | 303.15 K, 34388 kPa
1011.3 ± 1.2 kg/m3: 303.16 K, 663.45 kPa | 303.16 K, 666.06 kPa | 303.16 K, 670.92 kPa | 303.16 K, 671.95 kPa | 303.16 K, 683.79 kPa | 303.16 K, 684.84 kPa | 303.16 K, 700.64 kPa | 303.16 K, 732.61 kPa | 303.16 K, 790.98 kPa
1029.2 ± 1.2 kg/m3: 303.15 K, 30423 kPa | 303.15 K, 30493 kPa | 303.15 K, 30526 kPa | 303.15 K, 30566 kPa | 303.15 K, 30598 kPa | 303.15 K, 30631 kPa
